Laboratory results reported in ChEMBL document CHEMBL6121038, “Design and Synthesis of Hederagenin Derivatives for the Treatment of Sepsis by Targeting TAK1 and Regulating the TAK1-NF-κB/MAPK Signaling” (J Med Chem, 2025).
Values belong to the compound of their own block, whether it stands above or below them. Activity calls are given as the source filed them. No cut-off for these calls is given here.

Experiments:
[1] = (§1) Toxicity in BALB/c mouse assessed as histopathological lesions in liver at 10 mg/kg, po in presence of 4a-benzyl-12-ethyl-(6aS,6bR,9R,13aR)-9-(hydroxymethyl)-2,2,6a,6b,9,13a-hexamethyl-1,3,4,5,6,6a,6b,7,8,8a,9,13,13a,13b,14,15b-hexadecahydropiceno[2,3-d]isoxazole-4a,12(2H)-dicarboxylate by H and E staining based analysis; assay type: organism-based; details: in vivo
[2] = Half life in BALB/c mouse at 10 mg/kg, po measured upto 24 hrs by LC/MS-MS analysis; assay type: ADME, organism-based; details: in vivo
[3] = Toxicity in BALB/c mouse assessed as animal survival at 750 mg/kg, po administered for 2 hrs; assay type: organism-based; details: in vivo
Mus musculus [4] = assay: Antiinflammatory activity in LPS-induced BALB/c sepsis mouse model assessed as decrease in serum BUN level at 2.5 to 10 mg/kg, iv administered for 2 hrs and measured after 12 hrs; assay type: functional, organism-based; details: dose 2.5-10 mg/kg, time 14.0 hrs
Mus musculus [5] = assay: Antiinflammatory activity in LPS-induced BALB/c sepsis mouse model assessed as decrease in serum AST level at 2.5 to 10 mg/kg, iv administered for 2 hrs and measured after 12 hrs; assay type: functional, organism-based; details: dose 2.5-10 mg/kg, time 14.0 hrs
[6] = Tmax in BALB/c mouse at 10 mg/kg, po measured upto 24 hrs by LC/MS-MS analysis; assay type: ADME, organism-based; details: in vivo
Mus musculus [7] = assay: Antiinflammatory activity in LPS-induced BALB/c sepsis mouse model assessed as decrease in serum MDA level at 2.5 to 10 mg/kg, iv administered for 2 hrs and measured after 12 hrs; assay type: functional, organism-based; details: dose 2.5-10 mg/kg, time 14.0 hrs
[8] = Toxicity in BALB/c mouse assessed as pathological damage in lung at 10 mg/kg, po administered for 2 hrs by H and E staining based analysis; assay type: organism-based; details: in vivo
[9] = Toxicity in BALB/c mouse assessed as pathological damage in heart at 10 mg/kg, po administered for 2 hrs by H and E staining based analysis; assay type: organism-based; details: in vivo
[10] = Toxicity in BALB/c mouse assessed as kidney lesions at 2.5 to 10 mg/kg, iv administered for 2 hrs and measured after 12 hrs by H and E staining based assay; assay type: organism-based; details: in vivo, 14 h, dose 2.5-10 mg/kg
[11] = Toxicity in BALB/c mouse assessed as liver lesions at 2.5 to 10 mg/kg, iv administered for 2 hrs and measured after 12 hrs by H and E staining based assay; assay type: organism-based; details: in vivo, 14 h, dose 2.5-10 mg/kg
RAW264.7 [12] = assay: Antiinflammatory activity in LPS-induced mouse RAW264.7 cells assessed as reduction in TNF-alpha release incubated for 24 hrs by ELISA method; assay type: functional, cell-based; details: dose 2.5-10 µM
RAW264.7 [13] = assay: Antiinflammatory activity in LPS-induced mouse RAW264.7 cells assessed as inhibition of TNF-alpha level at 20 uM incubated for 24 hrs by ELISA method relative to control; assay type: functional
[14] = Toxicity in BALB/c mouse assessed as change in MDA level in serum at 10 mg/kg, po; assay type: organism-based; details: in vivo
Mus musculus [15] = assay: Antiinflammatory activity in LPS-induced BALB/c sepsis mouse model assessed as decrease in serum SCr level at 2.5 to 10 mg/kg, iv administered for 2 hrs and measured after 12 hrs; assay type: functional, organism-based; details: dose 2.5-10 mg/kg, time 14.0 hrs
[16] = AUC (0 to infinity) in BALB/c mouse at 10 mg/kg, po measured upto 24 hrs by LC/MS-MS analysis; assay type: ADME, organism-based; details: in vivo
[17] = Toxicity in BALB/c mouse assessed as lung lesions at 2.5 to 10 mg/kg, iv administered for 2 hrs and measured after 12 hrs by H and E staining based assay; assay type: organism-based; details: in vivo, 14 h, dose 2.5-10 mg/kg
[18] = AUC (0 to t) in BALB/c mouse at 10 mg/kg, po measured upto 24 hrs by LC/MS-MS analysis; assay type: ADME, organism-based; details: in vivo
[19] = Toxicity in BALB/c mouse assessed as pathological damage in kidney at 10 mg/kg, po administered for 2 hrs by H and E staining based analysis; assay type: organism-based; details: in vivo
[20] = Toxicity in BALB/c mouse assessed as increase in survival rate at 10 mg/kg, po administered for 3 days; assay type: organism-based; details: in vivo, 72 h, time 3 day
RAW264.7 [21] = assay: Cytotoxicity against mouse RAW264.7 cells assessed as cell viability at 40 uM measured after 24 hrs by MTT assay; assay type: toxicity, cell-based; details: raw264.7, 24 h
RAW264.7 [22] = assay: Antiinflammatory activity in LPS-induced mouse RAW264.7 cells assessed as inhibition of IL-6 level at 20 uM incubated for 24 hrs by ELISA method relative to control; assay type: functional
Mus musculus [23] = assay: Antiinflammatory activity in LPS-induced BALB/c sepsis mouse model assessed as decrease in serum SOD level at 2.5 to 10 mg/kg, iv administered for 2 hrs and measured after 12 hrs; assay type: functional, organism-based; details: dose 2.5-10 mg/kg, time 14.0 hrs
RAW264.7 [24] = assay: Antiinflammatory activity in LPS-induced mouse RAW264.7 cells assessed as reduction in TAK1-TAB1 complex formation incubated for 2 hrs vy immunoprecipitation analysis; assay type: functional, cell-based
RAW264.7 [25] = assay: Antiinflammatory activity in LPS-induced mouse RAW264.7 cells assessed as reduction in IL-6 release incubated for 24 hrs by ELISA method; assay type: functional, cell-based; details: dose 2.5-10 µM
Mus musculus [26] = assay: Antiinflammatory activity in LPS-induced BALB/c sepsis mouse model assessed as decrease in serum ALT level at 2.5 to 10 mg/kg, iv administered for 2 hrs and measured after 12 hrs; assay type: functional, organism-based; details: dose 2.5-10 mg/kg, time 14.0 hrs
[27] = Toxicity in BALB/c mouse assessed as animal survival at 500 mg/kg, po administered for 2 hrs; assay type: organism-based; details: in vivo
[28] = Cmax in BALB/c mouse at 10 mg/kg, po measured upto 24 hrs by LC/MS-MS analysis; assay type: ADME, organism-based; details: in vivo
[29] = as §1, with “kidney” for “liver”; assay type: organism-based; details: in vivo
Mus musculus [30] = assay: Antiinflammatory activity in LPS-induced BALB/c sepsis mouse model assessed as reduction in TNF-alpha level in serum at 2.5 to 10 mg/kg, iv administered for 2 hrs and measured after 12 hrs by ELISA analysis; assay type: functional, organism-based; details: dose 2.5-10 mg/kg, time 14.0 hrs
[31] = Toxicity in BALB/c mouse assessed as pathological damage in spleen at 10 mg/kg, po administered for 2 hrs by H and E staining based analysis; assay type: organism-based; details: in vivo
Mus musculus [32] = assay: Antiinflammatory activity in LPS-induced BALB/c sepsis mouse model assessed as reduction in IL-6 level in serum at 2.5 to 10 mg/kg, iv administered for 2 hrs and measured after 12 hrs by ELISA analysis; assay type: functional, organism-based; details: dose 2.5-10 mg/kg, time 14.0 hrs
[33] = Toxicity in BALB/c mouse assessed as pathological damage in liver at 10 mg/kg, po administered for 2 hrs by H and E staining based analysis; assay type: organism-based; details: in vivo
[34] = Toxicity in BALB/c mouse assessed as change in body weight at 10 mg/kg, po administered for 3 days; assay type: organism-based; details: in vivo, 72 h, time 3 day
[35] = as §1, with “lung” for “liver”; assay type: organism-based; details: in vivo
[36] = Toxicity in BALB/c mouse assessed as histopathological lesions in kidney at 10 mg/kg, po by H and E staining based analysis; assay type: organism-based; details: in vivo
[37] = Toxicity in BALB/c mouse assessed as histopathological lesions in liver at 10 mg/kg, po by H and E staining based analysis; assay type: organism-based; details: in vivo
[38] = Toxicity in BALB/c mouse assessed as change in BUN level in serum at 10 mg/kg, po; assay type: organism-based; details: in vivo
[39] = Toxicity in BALB/c mouse assessed as change in AST level in serum at 10 mg/kg, po; assay type: organism-based; details: in vivo
[40] = Toxicity in BALB/c mouse assessed as change in SCr level in serum at 10 mg/kg, po; assay type: organism-based; details: in vivo
[41] = Toxicity in BALB/c mouse assessed as change in SOD level in serum at 10 mg/kg, po; assay type: organism-based; details: in vivo
[42] = Toxicity in BALB/c mouse assessed as change in ALT level in serum at 10 mg/kg, po; assay type: organism-based; details: in vivo

Compound: CCOC(=O)c1noc2c1C[C@@]1(C)[C@@H](CC[C@]3(C)[C@@H]1CC=C1[C@@H]4CC(C)(C)CC[C@]4(C(=O)OCc4ccccc4)CC[C@]13C)[C@]2(C)COC(=O)CCC(=O)N1CCOCC1
Activity [1]: Non-toxic
half-life [2]: 325 min
Activity [3]: Toxic
Activity (Mus musculus [4]): Active
Activity (Mus musculus [5]): Active
Tmax [6]: 2.25 h
Activity (Mus musculus [7]): Active
Activity [8]: Non-toxic
Activity [9]: Non-toxic
Activity [10]: Non-toxic
Activity [11]: Non-toxic
Activity (RAW264.7 [12]): Dose-dependent-effect
inhibition at 20 µM (RAW264.7 [13]): 80%
Activity [14]: Non-toxic
Activity (Mus musculus [15]): Active
AUC(0-inf) [16]: 9970 ng·h/mL
Activity [17]: Non-toxic
AUC(0-t) at 24 h [18]: 9620 ng·h/mL
Activity [19]: Non-toxic
Activity [20]: Non-toxic
Activity (RAW264.7 [21]): Non-toxic
inhibition at 20 µM (RAW264.7 [22]): 69.6%
Activity (Mus musculus [23]): Active
Activity (RAW264.7 [24]): Active
Activity (RAW264.7 [25]): Dose-dependent-effect
Activity (Mus musculus [26]): Active
Activity [27]: Non-toxic
Cmax [28]: 2760 ng/mL
Activity [29]: Non-toxic
Activity (Mus musculus [30]): Active
Activity [31]: Non-toxic
Activity (Mus musculus [32]): Active
Activity [33]: Non-toxic
Activity [34]: Non-toxic
Activity [35]: Non-toxic

half-life [2]: 291 min
Tmax [6]: 4 h
AUC(0-inf) [16]: 23400 ng·h/mL
AUC(0-t) at 24 h [18]: 22700 ng·h/mL
Cmax [28]: 3930 ng/mL
Compound: CCOC(=O)c1noc2c1C[C@@]1(C)[C@@H](CC[C@]3(C)[C@@H]1CC=C1[C@@H]4CC(C)(C)CC[C@]4(C(=O)OCc4ccccc4)CC[C@]13C)[C@]2(C)CO
Activity [36]: Non-toxic
Activity [37]: Non-toxic
Activity [38]: Non-toxic
Activity [39]: Non-toxic
Activity [40]: Non-toxic
Activity [41]: Non-toxic
inhibition at 20 µM (RAW264.7 [13]): 52.4%
Activity [42]: Non-toxic
Activity (RAW264.7 [21]): Non-toxic
inhibition at 20 µM (RAW264.7 [22]): 32.5%
